# In US20240382600A1, “BIFUNCTIONAL DEGRADERS COMPRISING A TEAD BINDER” (Novartis AG, priority 2021, published 2024):
# Key:
# [1] = test system: MKN-45/Ubc-luc cells (unspecific inhibition of luciferase expression or activity); assay: Reporter gene assay specificity control (Ubc-Luc), MKN-45; assay type: cell-based; details: MKN-45/Ubc-luc specificity control, 24 hrs
# From the text: (§1) NCI-H2052 mesothelioma cells (RRID: CVCL_1518) bearing Hippo-pathway inactivating mutations upstream of YAP (homozygous deletion of LATS2 and mutation of NF2) were obtained from ATCC (American Type Culture Collection), while SF268 glioma cells (RRID: CVCL_1689) overexpressing YAP due to genomic amplification were obtained from the NCI (National Cancer Institute). MKN-45 gastric adenocarcinoma cells (RRID: CVCL_0434) genomically deleted for YAP were obtained from the JCRB (Japanese Collection of Research Bioresources) Cell Bank.
# As a specificity control, MKN-45 cells were stably transduced with a Ubc-Luc reporter construct, in which constitutive expression of firefly luciferase is driven by the promoter of the ubiquitin C housekeeping gene. The resulting cell line, MKN-45/Ubc-luc, was selected and maintained in growth medium (RPMI 1640 (Amimed Cat #1-41F01-I), 2 mM L-Glutamine (Amimed Cat #5-10K50-H), 10% fetal calf serum (Amimed Cat #2-01F30-I Lot K08815P), 1% MEM Non-essential amino acids (Amimed Cat #5-13K00-H), 1× Penicillin/Streptomycin (Amimed Cat #4-01F00-H)) containing 1 μg/ml blasticidin (Gibco Cat #A11139-03).
# (§2) Stock solutions of compounds were prepared at a concentration of 10 mM in DMSO and stored at 4° C. Where necessary to afford a full dose-response curve, the stock solutions were pre-diluted in DMSO to 1′000-fold the desired reduced start concentration. On the day after cell seeding, eleven 2-fold serial dilutions of each compound were dispensed directly into the cell assay plates using a HP 300D non-contact Digital Dispenser (TECAN). The final concentration of DMSO was normalized to 0.1% in all wells.
# The ability of compounds to inhibit YAP-dependent transcription was assessed in NCI-H2052 Tet-On shYAP_2371 pLenti6 MCAT_Luc and SF268-MCAT_Luc, dox-i-shYAPLevy (Clone 13) cells, while specificity (lack of unspecific inhibition of luciferase expression or activity) was assessed in MKN-45/Ubc-luc cells. The individual cell lines were seeded at 2′500 cells/20 μl/well into white-wall, clear-bottom 384-well plates (Greiner, Cat #781098) and incubated over night at 37° C. prior to addition of serial compound dilutions as described above. Following incubation for 24 hrs at 37° C., compound-mediated modulation of reporter-gene activity was quantified 5 min after addition 20 μL […] BrightGlo (Promega Cat #E2620), by measuring luminescence intensity on a multi-mode plate-reader (TECAN) with an integration time of 100 ms.
# (§3) For data analysis, the assay background value determined in wells containing medium, but no cells, was subtracted from all data points.
# [2] = test system: SF268-MCAT_Luc_dox-i-shYAPLevy (Clone 13) cells; assay: Proliferation assay (resazurin/AlamarBlue), SF268; assay type: cell-based; details: SF268, 72 hours
# From the text: as §1, §2
# (§4) After incubation for 72 hours at 37° C., compound-mediated modulation of cell viability was quantified as follows. […] To enable differentiation of cytotoxic from cytostatic compound effects, the number of viable cells on the day of compound addition (day 0) was assessed in a separate cell plate and used to assess the extent of cell viability suppression as described in the following section.
# as §3
# (§5) The extent of growth inhibition and potential cell kill was assessed by comparing the resorufin levels in compound-treated cells with those present at the time of compound addition. To this end, the following conditional concept was programmatically applied in HELIOS to calculate % growth (% G) for each compound-treated well: % G=(T−V0)/V0))*100 when T<V0, and % G=(T−V0)/(V−V0)))*100 when T≥V0, where V0 is the viability level at time of compound addition, while V and T represent vehicle-control and compound-treated viability levels, respectively, at the end of the compound incubation. 100%, 0% and −100% signify absence of growth inhibition, growth stasis, and complete cell kill, respectively. Compound concentrations leading to half-maximal growth inhibition (GI50) and residual cell viability at the highest tested compound concentration (Data(cmax), expressed in percent) were routinely calculated.
# [3] = test system: NCI-H2052 Tet-On shYAP_2371 pLenti6 MCAT_Luc cells; assay: Proliferation assay (resazurin/AlamarBlue), NCI-H2052; assay type: cell-based; details: NCI-H2052, 72 hours
# From the text: as §1, §2, §4, §3, §5
# [4] = test system: YAP-dependent transcription in NCI-H2052 Tet-On shYAP_2371 pLenti6 MCAT_Luc cells; assay: YAP reporter gene activity assay (MCAT-Luc), NCI-H2052; assay type: cell-based; details: 24 hrs
# MKN-45/Ubc-luc cells = assay: Proliferation assay (resazurin/AlamarBlue), MKN-45; assay type: cell-based; details: MKN-45, 72 hours
# From the text: as §1
# As a specificity control, MKN-45 cells were stably transduced with a Ubc-Luc reporter construct, in which constitutive expression of firefly luciferase is driven by the promoter of the ubiquitin C housekeeping gene.
# as §2, §4, §3, §5
# [5] = test system: YAP-dependent transcription in SF268-MCAT_Luc_dox-i-shYAPLevy (Clone 13) cells; assay: YAP reporter gene activity assay (MCAT-Luc), SF268; assay type: cell-based; details: SF268 MCAT_Luc, 24 hrs
# [6] = target: Avi-humanTEAD4^217-434 / Cy5 labeled humanYAP^60-100 (Homo sapiens (Human), UniProt Q15561); assay: In-vitro biochemical TR-FRET assay (TEAD4/YAP); assay type: binding; details: 1 h at room temperature
# Method: N-terminus Cy5 labeled humanYAP^60-100 (20 nM) was then added to this preparation. Compounds were dissolved at 10 mM in 100% DMSO and serial dilutions were made in 100% DMSO. The diluted compound solutions were incubated in white 384-well plates (Greiner Bio-One) for 1 h at room temperature with the above described mix. The final DMSO concentration present in the assay was 1%. […] The IC50 values were estimated by fitting the data by nonlinear fit regression (GraphPad Prism).
# Sequence of Avi-humanTEAD4^217-434 / Cy5 labeled humanYAP^60-100 (Q15561 217-434): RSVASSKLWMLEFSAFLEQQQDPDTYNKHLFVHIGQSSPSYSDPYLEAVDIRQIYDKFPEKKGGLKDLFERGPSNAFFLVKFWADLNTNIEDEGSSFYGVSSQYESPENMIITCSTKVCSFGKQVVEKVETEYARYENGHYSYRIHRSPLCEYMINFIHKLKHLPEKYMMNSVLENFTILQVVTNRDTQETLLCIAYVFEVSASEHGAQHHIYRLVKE
SMILES,IC50 ([1]; Homo sapiens) [nM],GI50 ([3]; Homo sapiens) [nM],IC50 ([4]; Homo sapiens) [nM],GI50 (MKN-45/Ubc-luc cells; Homo sapiens) [nM],"IC50 ([5]; Homo sapiens, SF-268) [nM]",IC50 [6] [nM],IC50 [1] [nM],GI50 [3] [nM],IC50 [4] [nM],GI50 (MKN-45/Ubc-luc cells) [nM],IC50 [5] [nM],"GI50 ([2]; Homo sapiens, SF-268) [nM]",GI50 [2] [nM]
"CNC(=O)c1cnc(OCCOCCOCCn2cc(-c3cccc(N4CCC(=O)NC4=O)c3)nn2)c(F)c1-c1c(Cl)c(F)cc2c1C[C@](c1ccccc1)([C@@H]1CCCN1)O2 (atropisomer, axis not shown) [Example 34, 4-((2S,4S)-5-chloro-6-fluoro-2-phenyl-2-((S)-pyrrolidin-2-yl)-2,3-dihydrobenzofuran-4-yl)-6-(2-(2-(2-(4-(3-(2,4-dioxotetrahydropyrimidin-1(2H)-yl)phenyl)-1H-1,2,3-triazol-1-yl)ethoxy)ethoxy)ethoxy)-5-fluoro-N-methylnicotinamide]",> 20000,2270,2800,> 20000,3530,6.9,,,,,,19300,
"CNC(=O)c1cnc(OCCOCCn2cc(-c3ccc4c(c3)CN(C3CCC(=O)NC3=O)C4=O)nn2)c(F)c1-c1c(Cl)c(F)cc2c1C[C@](c1ccccc1)([C@@H]1CCCN1)O2 (stereo partly drawn) [Example 32, 4-((2S,4S)-5-Chloro-6-fluoro-2-phenyl-2-((S)-pyrrolidin-2-yl)-2,3-dihydrobenzofuran-4-yl)-6-(2-(2-(4-(2-(2,6-dioxopiperidin-3-yl)-1-oxoisoindolin-5-yl)-1H-1,2,3-triazol-1-yl)ethoxy)ethoxy)-5-fluoro-N-methylnicotinamide]",> 20000,6290,5900,> 20000,2750,23,,,,,,> 20000,
"COc1ccc(C(N)=O)c(-c2c(Cl)c(F)cc3c2[C@H](C)[C@@](CN[C@H]2CC[C@H](C(=O)N4CCC(CC5CCN(C(=O)COc6ccc(Cl)c(N7CCC(=O)NC7=O)c6)CC5)CC4)CC2)(c2ccccc2)O3)c1F (atropisomer, axis not shown) [Example 28, 2-((2S,3S,4S)-5-chloro-2-((((1r,4S)-4-(4-((1-(2-(4-chloro-3-(2,4-dioxotetrahydropyrimidin-1(2H)-yl)phenoxy)acetyl)piperidin-4-yl)methyl)piperidine-1-carbonyl)cyclohexyl)amino)methyl)-6-fluoro-3-methyl-2-phenyl-2,3-dihydrobenzofuran-4-yl)-3-fluoro-4-methoxybenzamide]",> 2000,16,4.4,> 2000,0.92,2.7,,,,,,31,
"COc1ccc(C(=O)N2CCC(CCC3CCN(C(=O)[C@H]4CC[C@H](NC[C@]5(c6ccccc6)Oc6cc(F)c(Cl)c(-c7c(C(N)=O)ccc(OC)c7F)c6[C@@H]5C)CC4)CC3)CC2)cc1N1CCC(=O)NC1=O (atropisomer, axis not shown) [Example 27, 2-((2S,3S,4S)-5-chloro-2-((((1r,4S)-4-(4-(2-(1-(3-(2,4-dioxotetrahydropyrimidin-1(2H)-yl)-4-methoxybenzoyl)piperidin-4-yl)ethyl)piperidine-1-carbonyl)cyclohexyl)amino)methyl)-6-fluoro-3-methyl-2-phenyl-2,3-dihydrobenzofuran-4-yl)-3-fluoro-4-methoxybenzamide]",> 2000,3.8,0.66,> 2000,0.17,4,,,,,,5,
"COc1ccc(C(=O)NCCCCCn2cc(-c3ccc4c(c3)CN(C3CCC(=O)NC3=O)C4=O)nn2)c(-c2c(Cl)c(F)cc3c2C[C@@](CN)(c2ccccc2)O3)c1F (stereo partly drawn) [Example 37, 2-((2S,4S)-2-(aminomethyl)-5-chloro-6-fluoro-2-phenyl-2,3-dihydrobenzofuran-4-yl)-N-(5-(4-(2-(2,6-dioxopiperidin-3-yl)-1-oxoisoindolin-5-yl)-1H-1,2,3-triazol-1-yl)pentyl)-3-fluoro-4-methoxybenzamide]",15900,6050,3350,12400,420,120,,,,,,14900,

# The next molecules have a lower IC50 [6] than those just listed; values first:
IC50 ([1]; Homo sapiens) [nM],GI50 ([3]; Homo sapiens) [nM],IC50 ([4]; Homo sapiens) [nM],GI50 (MKN-45/Ubc-luc cells; Homo sapiens) [nM],"IC50 ([5]; Homo sapiens, SF-268) [nM]",IC50 [6] [nM],IC50 [1] [nM],GI50 [3] [nM],IC50 [4] [nM],GI50 (MKN-45/Ubc-luc cells) [nM],IC50 [5] [nM],SMILES,"GI50 ([2]; Homo sapiens, SF-268) [nM]",GI50 [2] [nM]
> 20000,140,49,> 20000,1.7,1.1,,,,,,"COc1ccc(C(=O)N2CCC(OC3CCN(CCNC(=O)[C@H]4CC[C@H](NC[C@]5(c6ccccc6)Oc6cc(F)c(Cl)c(-c7c(C(N)=O)ccc(OC)c7F)c6[C@@H]5C)CC4)CC3)CC2)cc1N1CCC(=O)NC1=O (atropisomer, axis not shown) [Example 4, 2-((2S,3S,4S)-5-chloro-2-((((1r,4S)-4-((2-(4-((1-(3-(2,4-dioxotetrahydropyrimidin-1(2H)-yl)-4-methoxybenzoyl)piperidin-4-yl)oxy)piperidin-1-yl)ethyl)carbamoyl)cyclohexyl)amino)methyl)-6-fluoro-3-methyl-2-phenyl-2,3-dihydrobenzofuran-4-yl)-3-fluoro-4-methoxybenzamide]",33,
,,,,,1.9,14300,27,40,4110,33,"COc1ccc(C(N)=O)c(-c2c(Cl)c(F)cc3c2[C@H](C)[C@@](CN[C@H]2CC[C@H](C(=O)OC)CC2)(c2ccccc2)O3)c1F [C-I-k, Methyl (1S,4r)-4-((((2S,3S,4S)-4-(6-carbamoyl-2-fluoro-3-methoxyphenyl)-5-chloro-6-fluoro-3-methyl-2-phenyl-2,3-dihydrobenzofuran-2-yl)methyl)amino)cyclohexane-1-carboxylate]",,390
> 20000,310,120,> 20000,3.1,1.6,,,,,,"COc1ccc(C(=O)N2CCC(OC3CN(C(=O)[C@H]4CC[C@H](NC[C@]5(c6ccccc6)Oc6cc(F)c(Cl)c(-c7c(C(N)=O)ccc(OC)c7F)c6[C@@H]5C)CC4)C3)CC2)cc1N1CCC(=O)NC1=O (atropisomer, axis not shown) [Example 8, 2-((2S,3S,4S)-5-chloro-2-((((1r,4S)-4-(3-((1-(3-(2,4-dioxotetrahydropyrimidin-1(2H)-yl)-4-methoxybenzoyl)piperidin-4-yl)oxy)azetidine-1-carbonyl)cyclohexyl)amino)methyl)-6-fluoro-3-methyl-2-phenyl-2,3-dihydrobenzofuran-4-yl)-3-fluoro-4-methoxybenzamide]",120,
